Test [1] deals with T1, LXRα [NR1H3] ligand binding domain (Homo sapiens, UniProt Q13133).
T1 sequence (Q13133 209-447 limits assumed): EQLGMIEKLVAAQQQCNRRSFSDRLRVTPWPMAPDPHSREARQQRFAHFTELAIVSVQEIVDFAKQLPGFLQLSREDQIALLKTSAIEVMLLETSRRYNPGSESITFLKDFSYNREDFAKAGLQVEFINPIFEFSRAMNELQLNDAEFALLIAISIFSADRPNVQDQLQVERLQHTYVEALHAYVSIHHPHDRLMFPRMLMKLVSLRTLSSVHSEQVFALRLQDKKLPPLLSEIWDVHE
Briefly: Radioligand binding assay with 3H-T0901317, LXRα ligand binding domain.

In test [2] the test system is ABCA1 expression (LXR target gene) in THP-1 cells. Description: Expression of LXR target gene ABCA1 in THP-1 monocytic cell line. Type of test: cell-based, human. Conditions: compound at 10 μM.
The target in test [3] is T2, LXRβ [NR1H2] ligand binding domain (Homo sapiens, UniProt P55055).
T2 sequence (P55055 222-460 limits assumed): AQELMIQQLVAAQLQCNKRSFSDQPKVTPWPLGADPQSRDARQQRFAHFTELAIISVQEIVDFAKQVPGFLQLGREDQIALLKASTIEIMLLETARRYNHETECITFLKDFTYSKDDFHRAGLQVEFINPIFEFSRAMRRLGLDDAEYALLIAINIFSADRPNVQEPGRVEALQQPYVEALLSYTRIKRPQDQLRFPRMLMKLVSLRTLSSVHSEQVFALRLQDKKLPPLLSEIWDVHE
Description: Radioligand binding assay with 3H-T0901317, LXRβ ligand binding domain.

pKi: −log10 of the molar value.

The results in this text go back to publication PMC9419992 (Organic letters, 2022).

As for `C[C@H](CCCC(C)(C)O)[C@H]1CC[C@H]2[C@@H]3CC=C4C[C@@H](O)CC[C@]4(C)[C@H]3CC[C@]12C` [25-hydroxycholesterol], the pKi in test [1] was 5.40; in test [3], 5.16. In addition, in test [2], the ABCA1 expression result was “increased the expression of ABCA1 as well, albeit at lower levels than T0901317”.

Turning to `O=S(=O)(c1ccccc1)N(CC(F)(F)F)c1ccc(C(O)(C(F)(F)F)C(F)(F)F)cc1` [Compound T0901317, T0901317], the ABCA1 expression entry in test [2] was “increasing the expression of ABCA1”.
